In patent publication US20230356105A1, “TETRAAZADODECANE BASED CHELATING AGENTS FOR SEPARATION OF RARE EARTH ELEMENTS AND METHOD THEREFOR” (Ustav Organicke Chemie a Biochemie AV CR V.V.I., priority 2020, published 2023):
“And” between values parts separate entries of the source, which are not always exact repeats. Equal entries are not always repeated.

Assays:
[1] = Separation of binary mixture of rare-earth metals by precipitation from solution using L1 (Example 7); format: physicochemical; settings: supernatant
Method: Two series of reaction mixtures were prepared, where one rare-earth metal was held constant (Gd or Lu) while the other was a variable rare-earth metal element (except Pm). […] The well plate was sealed with transparent adhesive tape to prevent evaporation and was anchored to a shaker. The well-plate was shaken for 5 days at room temperature at 900 rpm.

[2] = Separation of Ho/Er mixture by repeated precipitation using L1 (Example 11); format: physicochemical; settings: for Precipitate concentration [mM] Ho: dissolved to 200 μL
Method: Stock solutions were pipetted into round-bottom 2 mL Eppendorf tubes as follows: • 1. 10 μL 100 mM aqueous solution of HoCl3 • 2. 10 μL 100 mM aqueous solution of ErCl3 • 3. 20 μL 100 mM aqueous solution of compound L1. • 4. 60 μL 2 M MOPS buffer pH=7. • 5. 140 μL water.
Nine identical reaction mixtures were prepared and split into three groups: A, B, C. Each tube was equipped with one PTFE-coated magnetic stir bar and sealed, and the mixture was stirred on a magnetic stirrer for 24 hours at room temperature. The tubes were then centrifuged and the supernatants were carefully pipetted out and transferred to a new set of tubes. Precipitates from group A were dissolved by addition of 200 μL 0.1 M HCl. The concentrations of Ho and Er in the supernatants and in the re-dissolved precipitates from group A were determined by ICP-OES. Precipitates from groups B and C were further processed as follows: the precipitates were dissolved by addition of 100 μL 0.1 M HCl, and the pH of the solutions were then raised from 1 to 7 by addition of an equimolar amount of 0.2 M NaOH. The total volume was adjusted to 200 μL by addition of water. The prepared mixtures were subjected to a second round of precipitation and were stirred on a magnetic stirrer for 24 hours at room temperature. The tubes were again centrifuged and the supernatants were carefully pipetted out and transferred to a new set of tubes. Samples from group B were treated identically to the samples from group A previously, and the Ho and Er content in the supernatants and precipitates were determined by ICP-OES. Precipitates from group C were subjected to a third cycle of precipitation followed by Ho and Er content determination analogously to the procedures described above. The resulting absolute concentrations of both metals in the supernatants and precipitates, as well as calculated values of the separation factor Er/Ho according to the formula (concentration of Er in supernatant/concentration of Er in precipitate)/(concentration of Ho in supernatant/concentration of Ho in precipitate), are summarized in Table 5.

[3] = group A, 1st precipitation, mean

Structure (SMILES): O=C(O)CN1CCN(CC(=O)O)CCN(Cc2ccccc2)CCN(CC(=O)O)CC1 [L1, 2,2′,2″-(10-benzyl-1,4,7,10-tetraazacyclododecane-1,4,7-triyl)triacetic Acid]
- [mM] Gd ([1]; M1=Ce, M2=Gd): 0.149 mM
- [mM] M1 ([1]; M1=Ce, M2=Gd): 0.349 mM
- [mM] Lu ([1]; M1=Ce, M2=Lu): 5.174 mM
- [mM] M1 ([1]; M1=Ce, M2=Lu): 5.195 mM
- [mM] Gd ([1]; M1=Dy, M2=Gd): 0.196 mM
- [mM] M1 ([1]; M1=Dy, M2=Gd): 0.344 mM
- [mM] Lu ([1]; M1=Dy, M2=Lu): 5.252 mM
- [mM] M1 ([1]; M1=Dy, M2=Lu): 5.268 mM
- [mM] Gd ([1]; M1=Er, M2=Gd): 5.127 mM
- [mM] M1 ([1]; M1=Er, M2=Gd): 5.697 mM
- [mM] Lu ([1]; M1=Er, M2=Lu): 5.298 mM
- [mM] M1 ([1]; M1=Er, M2=Lu): 5.558 mM
- [mM] Gd ([1]; M1=Eu, M2=Gd): 0.141 mM
- [mM] M1 ([1]; M1=Eu, M2=Gd): 0.157 mM
- [mM] Lu ([1]; M1=Eu, M2=Lu): 6.000 mM
- [mM] M1 ([1]; M1=Eu, M2=Lu): 5.459 mM
- [mM] Gd ([1]; M1=Gd, M2=Gd): 0.208 mM
- [mM] M1 ([1]; M1=Gd, M2=Gd): 0.208 mM
- [mM] Lu ([1]; M1=Gd, M2=Lu): 3.875 mM
- [mM] M1 ([1]; M1=Gd, M2=Lu): 0.325 mM
- [mM] Gd ([1]; M1=Ho, M2=Gd): 0.219 mM
- [mM] M1 ([1]; M1=Ho, M2=Gd): 0.522 mM
- [mM] Lu ([1]; M1=Ho, M2=Lu): 5.643 mM
- [mM] M1 ([1]; M1=Ho, M2=Lu): 5.424 mM
- [mM] Gd ([1]; M1=La, M2=Gd): 0.134 mM
- [mM] M1 ([1]; M1=La, M2=Gd): 0.535 mM
- [mM] Lu ([1]; M1=La, M2=Lu): 5.188 mM
- [mM] M1 ([1]; M1=La, M2=Lu): 4.968 mM
- [mM] Gd ([1]; M1=Lu, M2=Gd): 0.291 mM
- [mM] M1 ([1]; M1=Lu, M2=Gd): 4.93 mM
- [mM] Lu ([1]; M1=Lu, M2=Lu): 5.403 mM
- [mM] M1 ([1]; M1=Lu, M2=Lu): 5.403 mM
- [mM] Gd ([1]; M1=Nd, M2=Gd): 0.169 mM
- [mM] M1 ([1]; M1=Nd, M2=Gd): 0.249 mM
- [mM] Lu ([1]; M1=Nd, M2=Lu): 4.301 mM
- [mM] M1 ([1]; M1=Nd, M2=Lu): 0.456 mM
- [mM] Gd ([1]; M1=Pr, M2=Gd): 0.161 mM
- [mM] M1 ([1]; M1=Pr, M2=Gd): 0.268 mM
- [mM] Lu ([1]; M1=Pr, M2=Lu): 5.165 mM
- [mM] M1 ([1]; M1=Pr, M2=Lu): 5.067 mM
- [mM] Gd ([1]; M1=Sc, M2=Gd): 0.295 mM
- [mM] M1 ([1]; M1=Sc, M2=Gd): 5.882 mM
- [mM] Lu ([1]; M1=Sc, M2=Lu): 4.903 mM
- [mM] M1 ([1]; M1=Sc, M2=Lu): 5.49 mM
- [mM] Gd ([1]; M1=Sm, M2=Gd): 0.165 mM
- [mM] M1 ([1]; M1=Sm, M2=Gd): 0.179 mM
- [mM] Lu ([1]; M1=Sm, M2=Lu): 4.229 mM
- [mM] M1 ([1]; M1=Sm, M2=Lu): 0.305 mM
- [mM] Gd ([1]; M1=Tb, M2=Gd): 0.162 mM
- [mM] M1 ([1]; M1=Tb, M2=Gd): 0.235 mM
- [mM] Lu ([1]; M1=Tb, M2=Lu): 5.094 mM
- [mM] M1 ([1]; M1=Tb, M2=Lu): 5.272 mM
- [mM] Gd ([1]; M1=Tm, M2=Gd): 0.239 mM
- [mM] M1 ([1]; M1=Tm, M2=Gd): 2.653 mM
- [mM] Lu ([1]; M1=Tm, M2=Lu): 5.423 mM
- [mM] M1 ([1]; M1=Tm, M2=Lu): 5.453 mM
- [mM] Gd ([1]; M1=Y, M2=Gd): 0.183 mM
- [mM] M1 ([1]; M1=Y, M2=Gd): 0.471 mM
- [mM] Lu ([1]; M1=Y, M2=Lu): 5.188 mM
- [mM] M1 ([1]; M1=Y, M2=Lu): 5.24 mM
- [mM] Gd ([1]; M1=Yb, M2=Gd): 0.279 mM
- [mM] M1 ([1]; M1=Yb, M2=Gd): 4.218 mM
- [mM] Lu ([1]; M1=Yb, M2=Lu): 5.148 mM
- [mM] M1 ([1]; M1=Yb, M2=Lu): 5.226 mM
- average of the separation factor values Er/Ho ([2]; all Er/Ho mixtures): 2.73
- Separation factor Er/Ho ([2]; group A, 1st precipitation): 2.30 and 2.59 and 2.55
- Supernatant concentration [mM] Ho ([2]; group A, 1st precipitation): 0.44 mM and 0.40 mM and 0.46 mM
- Precipitate concentration [mM] Ho ([2]; group A, 1st precipitation): 4.72 mM and 4.31 mM and 4.29 mM
- Precipitate concentration [mM] Ho [2, 3]: 4.44 mM
- Supernatant concentration [mM] Ho [2, 3]: 0.43 mM
- Separation factor Er/Ho ([2]; group B, 2nd precipitation): 3.10 and 2.68 and 3.02
- Supernatant concentration [mM] Ho ([2]; group B, 2nd precipitation): 0.58 mM and 0.51 mM and 0.44 mM
- Precipitate concentration [mM] Ho ([2]; group B, 2nd precipitation): 4.07 mM and 4.24 mM and 4.20 mM
- Precipitate concentration [mM] Ho ([2]; group B, 2nd precipitation, mean): 4.17 mM
- Separation factor Er/Ho ([2]; group C, 3rd precipitation): 2.97 and 2.30 and 3.06
- Precipitate concentration [mM] Ho ([2]; group C, 3rd precipitation): 3.23 mM and 2.65 mM
- Precipitate concentration [mM] Ho ([2]; group C, 3rd precipitation, mean): 3.04 mM
